Values joined by “and” are separate entries in the source; they are usually repeats but may differ in a detail not shown here. Equal entries are not always repeated.
Experiments:
[1] = system: mice lacking the α1A-AR (AKO); assay: Doxorubicin cardiotoxicity in mice lacking the α1A-AR (survival, anatomy, conscious echocardiography)
Description: FIGS. 2A-2B. […] On Day 7 the mice underwent echocardiography prior to sacrifice. FIG. 2A. Fractional shortening, a measure of contractile function, with representative M-mode echocardiogram images. […] FIG. 2B. Heart sections from some of these mice (i.e. wild type mice) stained with Masson Trichrome. Fibrosis (weighted average collagen content) was quantified using Aperio ImageScope software.
C57Bl6J mice were from Jackson Laboratory or from our breeding colony. α1A-AR knockout (AKO) mice from Paul C. Simpson were congenic on a C57Bl6J background for at least 10 generations and produced by heterozygous breeding in our animal facility. 8-12 week old males were used in all experiments. Female Sprague-Dawley rats with newborn litters were from Charles River. Animal care and experimental protocols were approved by the UNC IACUC and complied with Guide for the Care and the use of Laboratory Animals (National Research Council Committee for the Update of the Guide for the Care and Use of Laboratory Animals, 2011).
On Day 7, mice underwent echocardiography and were sacrificed by cervical dislocation after an overdose of isoflurane.
Conscious transthoracic echocardiography was performed on loosely restrained mice in the McAllister Heart Institute Animal Models Core using a VisualSonics Vevo 2100 ultrasound system (VisualSonics, Inc., Toronto, Ontario, Canada). Two-dimensional and M-mode echocardiography were performed in the parasternal long-axis view at the level of the papillary muscle. Left ventricular systolic function was assessed by fractional shortening (% FS=[(LVEDD−LVESD)/LVEDD]×100). Reported values represent the average of at least five cardiac cycles per mouse. Sonographers and investigators were blinded to mouse treatment condition during image acquisition and analysis.

[2] = system: atrial natriuretic peptide, beta myosin heavy chain, alpha-skeletal actin transcripts; assay: qRT-PCR of molecular markers of hypertrophy in mouse hearts; type: in vivo; settings: hearts of mice treated with dabuzalgron
Description: FIGS. 1A-1C. […] FIG. 1A. Blood pressure (BP) and heart rate (HR) were measured non-invasively in male mice for 10 consecutive days using a CODA Volume Pressure Recording tail cuff system (Kent Scientific). All daily values represent the average of at least 20 cuff inflations. Mice were acclimatized to the apparatus for the first 5 days, during which no drug was administered. […] FIG. 1B. […] Heart weight (HW, in mg) was indexed to tibia length (TL, in mm). FIG. 1C. Quantitative RT-PCR was performed using heart tissue snap frozen at the time of sacrifice. Target transcripts (ANP=atrial natriuretic peptide; MHCβ=myosin heavy chain beta; α-skAct=alpha skeletal actin) were quantified relative to two standard transcripts (Polr2a=DNA-directed RNA polymerase II, subunit A; TBP=TATA-binding protein).
We used qRT-PCR to assay traditionally accepted molecular markers of hypertrophy in the hearts of mice treated with dabuzalgron. There was no change in the transcript abundance of atrial natriuretic peptide, beta myosin heavy chain, or alpha-skeletal actin. (FIG. 1C)
Total RNA was isolated from cells and tissue (QiagenRNeasy Plus mini kit #74134) and analyzed using a NanoDrop (ThermoScientific). For qRT-PCR, one […]g of RNA was reverse transcribed using High Capacity cDNA Reverse Transcription Kit (Life Technologies #4368814). Two step qRT-PCR reactions contained 2% of the cDNA product. All reactions were performed in triplicate in a Roche 480 Light Cycler. Relative quantitation of PCR products used the ΔΔCt method relative to two validated reference genes (Tbp and Polr2a). Similar efficiencies were confirmed for all primers. All probes and primers were from Roche.

ERK = ERK activation in neonatal rat ventricular myocytes (pERK/ERK Western blot); type: cell-based; settings: Rattus norvegicus, Ventricular myocyte; uninjured NRVMs, 15 minutes, propranolol pre-treatment; read-out: EC50, ERK phosphorylation
Description: FIGS. 4A-4F. […] The reaction was stopped immediately and lysates were blotted for total and phospho-ERK (pERK). FIG. 4A. Representative Western blot. FIG. 4B. […] FIG. 4C. Summary of pERK/ERK for experiments using 5 different NRVM isolations. The average pERK/ERK ratio for each experiment was derived from at least 2 individual wells and normalized to the pERK/ERK ratio for vehicle treated NRVMs. FIG. 4D and FIG. 4E. […] Heart lysates were blotted for pERK and ERK. Results were compared using one way ANOVA with Tukey post-test. FIG. 4F.
Dabuzalgron protects neonatal rat ventricular myocytes from cell death due to doxorubicin. […] (FIG. 4C).
Female Sprague-Dawley rats were from Charles River. NRVMs were isolated as previously described.7 Briefly, hearts from 1-2 day old rat pups were minced, digested serially in collagenase (Worthington)-containing solution, filtered, then pre-plated to exclude non-myocyotes. NRVMs were then plated on laminin-coated dishes in DMEM with 5% fetal bovine serum (Sigma F2442) for 24 hours. Experiments were carried out after 36-96 hours of serum starvation in the presence of insulin, transferrin, and BrdU. […]
All results are presented as mean±SEM. […] EC50 for ERK activation was calculated using sigmoidal dose-response analysis (Prism).

women = settings: cited from earlier work
pigs = settings: 10 μg/kg; cited from earlier work
rabbits = settings: 10 μg/kg; cited from earlier work
[3] = α1A-KO mice, Dox 20 mg/kg i.p. + dabuzalgron 20 μg/kg/d gavage 7 days
[4] = α1A-KO mice, Dox + 1240 20 μg/kg/d, Day 7 echocardiography
[5] = human, 1.5 mg by mouth twice daily

COc1cccc2c1C(=O)c1c(O)c3c(c(O)c1C2=O)C[C@@](O)(C(=O)CO)C[C@@H]3O[C@H]1C[C@H](N)[C@H](O)[C@H](C)O1 [DOX, doxorubicin]
fractional shortening, DOX-treated AKO vs DOX-treated WT mice ([1]; mouse, in vivo): significantly lower | 7-day survival ([1]; α1A-KO mice, Dox 20 mg/kg i.p. + vehicle gavage 7 days): 38% and 50% | 7-day survival ([1]; α1A-KO mice, Dox 20 mg/kg i.p. + vehicle gavage 7 days, listed as Dox): 38%

Cc1c(OCC2=NCCN2)ccc(Cl)c1NS(C)(=O)=O [dabuzalgron, N-[6-chloro-3-(4,5-dihydro-1H-imidazol-2-ylmethoxy)-2-methylphenyl]methanesulfonamide]
transcript abundance of alpha-skeletal actin [2]: no change | transcript abundance of atrial natriuretic peptide [2]: no change | transcript abundance of beta myosin heavy chain [2]: no change | effect on reduction in contractile function after DOX ([1]; AKO mice): not rescued | effect of dabuzalgron on survival after DOX ([1]; AKO mice, DOX 20 mg/kg i.p., dabuzalgron 10 μg/kg twice daily 7 days): unaffected | 7-day survival [1, 3]: 50% | Body Wt Day 7 [1, 3]: 26.4 ± 1.2 g | HW/BW [1, 3]: 0.39 ± 0.01 % | HW/TL [1, 3]: 5.6 ± 0.2 mg/mm | Heart Wt [1, 3]: 101 ± 5 mg | Lung Wt/TL [1, 3]: 5.1 ± 0.2 mg/mm | FS (Fractional Shortening) [1, 4]: 42 ± 2% | HR (Heart Rate) [1, 4]: 618 ± 19 beats per minute | EC50 (ERK): 480 nM | BP (women; [5]): did not alter | HR (women; [5]): did not alter | difference in urinary incontinence between dabuzalgron and placebo groups (women; interim analysis of the Phase 2 trials): no clinically meaningful difference | changes in BP (women; subjects who received dabuzalgron in any of these trials): no significant changes | tolerability (women; total of 1,223 women, Phase 1, two Phase 2 trials and open-label study): well tolerated | effect on BP (pigs): no effect | effect on BP (rabbits): no effect

From patent US11213514B2, “Alpha-1-adrenergic receptor agonist therapy” (The Regents of the University of California, priority 2016, dated 2022)
